Measurements taken from patent publication US8138158B2, “Compositions and methods for therapy for diseases characterized by defective chloride transport” (Children's Hospital & Research Center at Oakland, priority 1997, dated 2012).
Values belong to the molecule of their own block, whether it stands above or below them.

Key:
[1] = system: wildtype CFTR-corrected CF15 monolayers; test: Short-circuit current across wildtype CFTR-corrected CF15 monolayers; assay type: cell-based, human; conditions: D-isoascorbate 300 μm; amiloride; n=2
Protocol: (§1) Human airway cell culture. The human submucosal serous gland-like cell line Calu-3, the CF nasal epithelial cell line homozygous for ΔF508 CFTR (CF15) and human tracheal primary cultures (hTE) were cultured as described (Jefferson, D. M., Valentich, J. D., Marini, F. C., Grubman, S. A., Iannuzzi, M. C., Dorkin, H. L., Li, M., Klinger, K. W. & Welsh, M. J. (1990) Am. J. Physiol. 259, L496-L505. Sachs, L. A., Finkbeiner, W. E. & Widdicombe, J. H. (2003) In Vitro Cell Dev. Biol. Anim. 39, 56-62.). Wildtype CFTR-corrected CF15 cells were generated via adenovirus-mediated gene transfer. Growth media were nominally free of ascorbic acid (<10 μm, University Pathology Inc., Salt Lake City, Utah). For transepithelial measurements cells were grown on permeable filter inserts and used after 3 to 10 days.
(§2) Short-circuit current measurement. Calu-3 or CF15 cells were grown as monolayers, mounted in Ussing chambers and short-circuit current (ISC) was recorded as described (Illek, B. & Fischer, H. (1998) Am. J. Physiol. 275, L902-L910). At 20-50 second intervals, transepithelial voltage was clamped from zero to 2 mV and the transepithelial resistance (Rte) was calculated. A serosa-to-mucosa-directed Cl gradient was applied. Serosal Ussing chamber solution contained (in mM): 120 NaCl, 20 NaHCO3, 5 KHCO3, 1.2 NaH2PO4, 5.6 glucose, 2.5 CaCl2, 1.2 MgCl2. In mucosal Ussing chamber solutions, all Cl salts were exchanged for gluconate salts.
(§3) The CF15 cell line was used to determine whether ascorbate-stimulated Cl currents were solely mediated by the CFTR Cl conductance. The CF15 cell line is characterized by the absence of functional CFTR in the apical plasma membrane but the presence of other non-CFTR Cl conductances (Jefferson, D. M., Valentich, J. D., Marini, F. C., Grubman, S. A., Iannuzzi, M. C., Dorkin, H. L., Li, M., Klinger, K. W. & Welsh, M. J. (1990) Am. J. Physiol. 259, L496-L505). A concentration of L-ascorbic acid that lay within the upper plateau of the dose response curve (500 μm) was applied and ascorbate-stimulated Cl currents in CF15 vs. wildtype CFTR-corrected CF15 monolayers was compared (FIG. 23A). […] The defective response to L-ascorbic acid was reversed in wildtype CFTR-corrected CF15 epithelia such that ISC responded promptly to L-ascorbic acid (ΔISC=7.5±0.5 μA/cm^2, n=6). The ascorbate-stimulated current was further activated by the cAMP agonist forskolin and total stimulated ISC averaged 12.1±1.1 μA/cm^2 (FIG. 4B). The ascorbate-stimulated Cl current reached 60±15% of the forskolin-stimulated current in CFTR-corrected CF15 monolayers, which was close to the corresponding findings in Calu-3 monolayers (68%, see FIG. 21A). The absence of ascorbate-stimulated Cl currents in CF15 monolayers supports the notion that non-CFTR Cl conductances were not activated by L-ascorbic acid.
(§4) In this example, chloride currents stimulated by L-ascorbate or D-ascorbate were measured in CF15 versus. wildtype CFTR-corrected CF15 monolayers. A concentration of L-ascorbate (1 mM) or D-isoascorbate (300 μm) that lay within the upper plateau of the dose-response curve was applied to cells and the resulting chloride currents stimulated in CF15 versus wildtype CFTR-corrected CF15 monolayers were measured (FIG. 25 A-H). All experiments were performed in the presence of the sodium channel blocker amiloride. […]

ΔF508 CFTR = biological target: T1, ΔF508 CFTR (Mus musculus, UniProt P26361, DEL508-508); test: Rectal potential difference (RPD) in mice homozygous for ΔF508 CFTR; assay type: in vivo
T1 construct: from tissue; host or cells: rectal mucosa of living ΔF508 CF mice (C57Bl6/J), TMAO-treated or water-injected
T1 sequence (P26361 with tags, fused parts or gaps DEL508-508): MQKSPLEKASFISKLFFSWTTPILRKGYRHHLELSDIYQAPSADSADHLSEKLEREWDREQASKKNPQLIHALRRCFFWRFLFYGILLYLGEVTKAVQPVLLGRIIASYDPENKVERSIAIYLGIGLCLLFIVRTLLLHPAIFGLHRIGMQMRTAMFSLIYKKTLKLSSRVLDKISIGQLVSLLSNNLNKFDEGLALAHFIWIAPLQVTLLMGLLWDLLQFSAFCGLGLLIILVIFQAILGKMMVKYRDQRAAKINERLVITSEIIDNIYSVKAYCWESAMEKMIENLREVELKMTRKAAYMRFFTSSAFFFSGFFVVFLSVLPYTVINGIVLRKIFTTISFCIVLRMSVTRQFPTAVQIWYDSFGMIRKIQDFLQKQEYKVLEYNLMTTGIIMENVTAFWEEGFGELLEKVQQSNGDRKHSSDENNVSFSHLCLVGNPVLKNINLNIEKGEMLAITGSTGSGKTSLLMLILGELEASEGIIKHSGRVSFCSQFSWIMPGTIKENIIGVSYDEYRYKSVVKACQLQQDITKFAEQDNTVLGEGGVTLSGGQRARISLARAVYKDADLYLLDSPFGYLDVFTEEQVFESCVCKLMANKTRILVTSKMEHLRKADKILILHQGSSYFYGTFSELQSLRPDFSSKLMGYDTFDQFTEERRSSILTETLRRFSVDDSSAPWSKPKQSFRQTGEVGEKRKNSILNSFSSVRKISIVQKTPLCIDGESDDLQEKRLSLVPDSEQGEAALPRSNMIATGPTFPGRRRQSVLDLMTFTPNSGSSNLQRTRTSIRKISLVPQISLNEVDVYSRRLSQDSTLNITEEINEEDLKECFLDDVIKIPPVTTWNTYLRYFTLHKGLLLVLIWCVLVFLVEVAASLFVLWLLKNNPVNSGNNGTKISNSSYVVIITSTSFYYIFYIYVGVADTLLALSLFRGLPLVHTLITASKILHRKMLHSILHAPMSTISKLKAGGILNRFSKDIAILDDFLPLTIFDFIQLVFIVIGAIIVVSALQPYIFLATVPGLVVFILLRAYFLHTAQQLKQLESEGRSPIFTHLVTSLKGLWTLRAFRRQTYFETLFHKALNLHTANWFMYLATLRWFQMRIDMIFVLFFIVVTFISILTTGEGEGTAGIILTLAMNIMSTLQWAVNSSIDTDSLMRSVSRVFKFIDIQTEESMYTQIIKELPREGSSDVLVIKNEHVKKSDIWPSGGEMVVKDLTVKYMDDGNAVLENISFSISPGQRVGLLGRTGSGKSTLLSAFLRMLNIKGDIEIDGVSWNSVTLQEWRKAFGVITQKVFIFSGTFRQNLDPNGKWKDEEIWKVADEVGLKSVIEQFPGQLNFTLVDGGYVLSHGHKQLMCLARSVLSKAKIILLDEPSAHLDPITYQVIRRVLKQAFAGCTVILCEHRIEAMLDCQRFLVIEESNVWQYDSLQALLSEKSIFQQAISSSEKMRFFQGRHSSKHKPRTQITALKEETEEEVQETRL
Source text: CF mice and rectal potential difference (RPD) measurements. Gene-targeted mice homozygous for the ΔF508 mutation (C57Bl6/J) received Golytely® (Braintree Laboratories, Inc.), a diarrhetic supplement, in the drinking water to increase their lifespan (Clarke, L. L., Gawenis, L. R., Franklin, C. L. & Harline, M. C. (1996) Lab. Anim. Sci. 46, 612-8). To correct the maturation defect of ΔF508 CFTR we used the chemical chaperone trimethylamine oxide (TMAO) (Brown, C. R., Hong-Brown, L. Q., Biwersi, J., Verkman, A. S. & Welch, W. J. (1996) Cell Stress Chaperones 1, 117-25). CF mice were injected with 4 mg/g TMAO from a 4 M stock solution every 8 hours for 24 hours, which is a regimen to partially correct the ΔF508 defect in CF mice (Fischer, H., Barbry, P., Illek, B., Sartori, C., Fukuda, N. & Matthay, M. A. (2001) Am. J. Physiol. 281, L52-L57). Controls were water-injected. The RPD assay was performed on mice that were anesthetized with 0.1 mg/g body weight ketamine and 0.01 mg/g body weight azepromazine. RPD was sensed with a 1 M NaCl agar bridge inserted ˜1 cm into the rectum vs. a subcutaneous needle filled with 1 M NaCl. Measurements were performed in Cl free solution containing 100 μm amiloride and 5 mM Ba(OH)2 to isolate the Cl-selective RPD.
In this Example, it was determined whether L-ascorbic acid affected the functional activation of ΔF508 CFTR in a CF-affected organism in vivo. Using gene-targeted mice homozygous for the ΔF508 mutation it was shown previously that the osmolyte trimethylamine oxide (TMAO) effectively supported ΔF508 CFTR trafficking in vivo (Fischer, H., Barbry, P., Illek, B., Sartori, C., Fukuda, N. & Matthay, M. A. (2001) Am. J. Physiol. 281, L52-L57). Accordingly, the effect of L-ascorbic acid was tested in homozygous ΔF508 CF mice treated with TMAO by using the RPD assay as a functional end point measure for mutant ΔF508-CFTR function. FIG. 24A illustrates that TMAO-treated CF mice manifested a detectable response to a maximal dose of L-ascorbic acid (1 mM) or its epimer D-isoascorbic acid (300 μM) and RPD hyperpolarized on average by −3.2±0.8 mV (n=4) and −3.6±1.8 mV (n=3), respectively (FIG. 24B).

[2] = system: CF15 monolayers homozygous for ΔF508 CFTR; test: Short-circuit current across CF15 monolayers homozygous for ΔF508 CFTR; assay type: cell-based, human; conditions: D-isoascorbate 300 μm
Protocol: as §1, §2
as §3, with “The absence of ascorbate-stimulated Cl currents in CF15 monolayers supports the notion that non-CFTR Cl conductances were not activated by L-ascorbic acid.” left out
as §4, with “A-H).” for “A-H). All experiments were performed in the presence of the sodium channel blocker amiloride.”
The functional activation of ΔF508 CFTR was determined after correction of the underlying trafficking defect of ΔF508 CFTR using S-Nitrosoglutathione (Zaman, et al., Biochem Biophys Res Commun 284: 65-70, 2001; Snyder, et al., American Journal of Respiratory and Critical Care Medicine 165: 922-6, 2002; Andersson, et al. Biochemical and Biophysical Research Communication 297(3): 552-557, 2002.). […]

Calu-3 monolayers = test: Transepithelial chloride currents in forskolin-prestimulated Calu-3 monolayers; assay type: cell-based, human; conditions: prestimulated with 10 μM forskolin; compound at 100 μM
Protocol: FIGS. 13A-13C illustrate the effect of additional representative flavonoids and isoflavonoids on chloride current in epithelial cells. FIG. 13A is a graph showing the stimulation of transepithelial chloride currents by reservatrol (100 μM), flavanone (100 μM), flavone (200 μM), apigenin (20 μM), apigenin 7-O-neohesperidoside (30 μM), kaempferol (20 μM), fisetin (100 μM), quercetin (30 μM), rutin (30 μM), genistein (30 μM), daidzein (50 μM), biochanin A (100 μM) and prunetin (100 μM) in Calu-3 monolayers. Experiments were performed in the presence of 10 μM forskolin. Stimulated currents are plotted relative to forskolin stimulated increase (forskolin stimulated currents are 100%). FIG. 13B is a recording showing the effect of 7,4′-dihydroxyflavone on chloride current in unstimulated tissue. […] Increasing concentrations of 7,4′-dihydroxyflavone (as indicated in μM) were added to mucosal side and dose-dependently stimulated chloride currents. Currents were recorded with a serosal-to-mucosal chloride gradient at 0 mV and pulses were obtained at 2 mV. FIG. 13C is a recording illustrating the effect of trimethoxy-apigenin. […] Increasing concentrations of trimethoxy-apigenin (as indicated in μM) were added to mucosal side and dose-dependently stimulated chloride currents. Experiment was performed on unstimulated tissue. Currents were recorded with a serosal-to-mucosal chloride gradient at 0 mV and pulses were obtained at 2 mV.
Airway epithelial cells were prestimulated with 10 μM forskolin. The percent increase in chloride current was then determined following treatment with a series of polyphenolic compounds. FIG. 13A summarizes the stimulatory effect of these compounds.

Calu-3 cell monolayer = test: Short-circuit current across α-toxin-permeabilized Calu-3 cell monolayer in Ussing chamber; assay type: cell-based, human; conditions: tissue first stimulated with forskolin 10 μM; biochanin A 100 and 300 μM
Source text: Within one in vitro assay, the level of chloride transport may be evaluated using mammalian pulmonary cell lines, such as Calu-3 cells, or primary human, rat, mouse and bovine tracheal and alveolar cell cultures, as well as intestinal epithelial cell lines, such as T84, HT-29, Caco-2 and cell lines of other epithelial origin such as MDCK and FRT. In general, such assays employ cell monolayers, which may be prepared by standard cell culture techniques. Within such systems, CFTR-mediated chloride current may be monitored in an Ussing chamber using intact epithelia. Anion efflux assays may be used to detect CFTR-mediated transport (e.g., iodide efflux, see for example RNA. 2003 October; 9(10): 1290-7). Additionally, chloride transport (or generally airway surface liquid composition), can be evaluated using any number of indicators such as described in J Gen Physiol. 2003 November; 122(5): 511-9. Alternatively, chloride transport may be evaluated using epithelial tissue in which the basolateral membrane is permeabilized with anion-selective ionophores such as nystatin, amphotericin B or Staphylococcus aureus α-toxin, and in which a chloride gradient is imposed across the apical membrane (see Illek et al., Am. J. Physiol. 270:C265-75, 1996). In either system, chloride transport is evaluated in the presence and absence of a test compound (i.e., a flavone or isoflavone, or ascorbate or derivative thereof), and those compounds that stimulate chloride transport as described above may be used within the methods provided herein.
A Calu-3 cell monolayer was prepared in an Ussing chamber as described by Illek et al., Am. J. Physiol. 270:C265-275, 1996. […]
To evaluate the effect of biochanin A, a Calu-3 cell monolayer was prepared and permeabilized as described above. […] The effect of biochanin A (Bio, 100 and 300 μM) on short-circuit current (ISC) across the Calu-3 monolayer was evaluated in an Ussing chamber.

RPD hyperpolarized on average by (ΔF508 CFTR; CF mice treated with 4 mg/g TMAO for 24 hours, D-isoascorbic acid 300 μM, n=3): −3.6±1.8 mV | ΔRPD (ΔF508 CFTR; water-injected control CF mice, L-ascorbic acid or D-isoascorbic acid, n=9): −1.1±0.4 mV
Structure (SMILES): O=C1O[C@H]([C@H](O)CO)C(O)=C1O [D-isoascorbic acid]
ΔIsc [1]: 6.6±1.7 μA/cm^2 | transepithelial chloride currents increased on average by ([2]; CF15 treated with 1 mM SNOG for 5-24 hours, n=8): 3.1±0.5 | ΔIsc ([2]; untreated CF epithelia, amiloride, n=7): 0.7±1.0 μA/cm^2

Structure (SMILES): C[N+](C)(C)[O-] [TMAO, trimethylamine oxide, reference compound]
increase of ascorbate- and isoascorbate-stimulated RPD compared to untreated CF mice (ΔF508 CFTR; TMAO 4 mg/g every 8 hours for 24 hours): approximately 3 fold

Structure (SMILES): COc1ccc(-c2coc3cc(O)cc(O)c3c2=O)cc1 [biochanin A, 4′-methoxy-5,7-dihydroxyisoflavone]
chloride currents further stimulated to (forskolin stimulated currents are 100%) (Calu-3 monolayers): 139% | short-circuit current (ISC), chloride secretion (Calu-3 cell monolayer): further stimulated chloride secretion
